The values below come from ChEMBL document CHEMBL5291721, “A preclinical secondary pharmacology resource illuminates target-adverse drug reaction associations of marketed drugs” (Nat Commun, 2023).

Assay [1] addresses T1, Muscarinic acetylcholine receptor M1 (Homo sapiens, UniProt P11229).
T1 sequence (P11229 whole entry): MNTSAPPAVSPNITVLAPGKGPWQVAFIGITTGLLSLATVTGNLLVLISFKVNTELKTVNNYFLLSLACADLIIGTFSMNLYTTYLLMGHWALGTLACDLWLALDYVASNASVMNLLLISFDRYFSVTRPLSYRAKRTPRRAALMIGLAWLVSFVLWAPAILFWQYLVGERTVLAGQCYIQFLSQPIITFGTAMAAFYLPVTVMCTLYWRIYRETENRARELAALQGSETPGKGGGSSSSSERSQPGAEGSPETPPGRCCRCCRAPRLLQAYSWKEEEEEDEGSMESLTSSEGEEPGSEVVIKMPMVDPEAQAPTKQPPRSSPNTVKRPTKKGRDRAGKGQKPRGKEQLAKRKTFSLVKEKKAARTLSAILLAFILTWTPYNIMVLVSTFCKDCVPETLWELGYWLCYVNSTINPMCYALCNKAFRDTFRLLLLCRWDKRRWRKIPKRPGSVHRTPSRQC
It counts as functional, cell-based.

Assay [2] concerns the target Gamma-aminobutyric acid receptor subunit alpha-1 (Rattus norvegicus, UniProt P62813).
The target of assay [3] is T2, Alpha-2A adrenergic receptor (Homo sapiens, UniProt P08913).
T2 sequence (P08913 whole entry): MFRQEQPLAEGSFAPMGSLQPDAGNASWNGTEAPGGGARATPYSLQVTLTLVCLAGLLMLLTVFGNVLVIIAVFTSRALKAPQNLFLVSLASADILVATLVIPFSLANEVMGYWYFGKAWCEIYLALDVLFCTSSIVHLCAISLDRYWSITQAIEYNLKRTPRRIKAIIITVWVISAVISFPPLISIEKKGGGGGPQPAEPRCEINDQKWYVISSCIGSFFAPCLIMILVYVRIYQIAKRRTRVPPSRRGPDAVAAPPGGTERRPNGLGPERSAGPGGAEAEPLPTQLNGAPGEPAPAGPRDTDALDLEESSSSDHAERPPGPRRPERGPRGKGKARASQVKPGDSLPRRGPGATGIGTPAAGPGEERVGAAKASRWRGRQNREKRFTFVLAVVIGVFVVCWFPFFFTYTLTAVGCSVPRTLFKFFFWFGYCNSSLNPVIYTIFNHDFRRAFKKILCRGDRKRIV

In assay [4] the target is T1, Muscarinic acetylcholine receptor M1. Format: functional, cell-based. The source holds these as a separate data set.
In assay [5] the target is Gamma-aminobutyric acid receptor subunit alpha-1/alpha-2/beta-2/gamma-2 (Homo sapiens, UniProt P14867+P18507+P47869+P47870). Format: protein-complex assay.
The next assay concerns the target T3, Androgen receptor (Homo sapiens, UniProt P10275).
T3 sequence (P10275 whole entry): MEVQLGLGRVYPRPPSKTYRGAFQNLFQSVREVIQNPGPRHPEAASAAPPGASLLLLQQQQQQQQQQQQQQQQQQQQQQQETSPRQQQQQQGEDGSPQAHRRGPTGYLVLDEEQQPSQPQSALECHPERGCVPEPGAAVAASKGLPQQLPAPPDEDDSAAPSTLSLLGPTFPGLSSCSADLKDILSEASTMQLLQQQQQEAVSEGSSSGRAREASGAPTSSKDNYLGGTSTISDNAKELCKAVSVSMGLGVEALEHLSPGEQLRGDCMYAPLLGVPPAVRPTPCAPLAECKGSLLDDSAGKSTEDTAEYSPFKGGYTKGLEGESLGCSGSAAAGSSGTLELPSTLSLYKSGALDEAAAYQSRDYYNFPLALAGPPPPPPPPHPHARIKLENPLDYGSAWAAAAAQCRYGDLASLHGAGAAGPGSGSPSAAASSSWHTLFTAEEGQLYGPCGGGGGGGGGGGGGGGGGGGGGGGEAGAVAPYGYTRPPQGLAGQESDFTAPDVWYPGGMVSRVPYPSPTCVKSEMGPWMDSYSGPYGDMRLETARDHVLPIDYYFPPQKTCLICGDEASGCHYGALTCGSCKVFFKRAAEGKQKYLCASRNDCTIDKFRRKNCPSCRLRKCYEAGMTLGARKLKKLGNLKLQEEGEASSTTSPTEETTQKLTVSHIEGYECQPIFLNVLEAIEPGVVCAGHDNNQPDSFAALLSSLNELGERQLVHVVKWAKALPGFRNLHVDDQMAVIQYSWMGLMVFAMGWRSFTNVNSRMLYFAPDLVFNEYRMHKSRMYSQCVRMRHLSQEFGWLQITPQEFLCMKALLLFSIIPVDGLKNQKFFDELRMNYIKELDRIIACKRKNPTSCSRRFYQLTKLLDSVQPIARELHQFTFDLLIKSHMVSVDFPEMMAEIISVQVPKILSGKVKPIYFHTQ

The target in assay [6] is T4, 5-hydroxytryptamine receptor 2A (Homo sapiens, UniProt P28223). It counts as functional, cell-based.
In assay [7] the target is T4, 5-hydroxytryptamine receptor 2A. It counts as functional, cell-based. This is another data set of the same source.
The target in assay [8] is T5, Alpha-1A adrenergic receptor (Homo sapiens, UniProt P35348).
T5 sequence (P35348 whole entry): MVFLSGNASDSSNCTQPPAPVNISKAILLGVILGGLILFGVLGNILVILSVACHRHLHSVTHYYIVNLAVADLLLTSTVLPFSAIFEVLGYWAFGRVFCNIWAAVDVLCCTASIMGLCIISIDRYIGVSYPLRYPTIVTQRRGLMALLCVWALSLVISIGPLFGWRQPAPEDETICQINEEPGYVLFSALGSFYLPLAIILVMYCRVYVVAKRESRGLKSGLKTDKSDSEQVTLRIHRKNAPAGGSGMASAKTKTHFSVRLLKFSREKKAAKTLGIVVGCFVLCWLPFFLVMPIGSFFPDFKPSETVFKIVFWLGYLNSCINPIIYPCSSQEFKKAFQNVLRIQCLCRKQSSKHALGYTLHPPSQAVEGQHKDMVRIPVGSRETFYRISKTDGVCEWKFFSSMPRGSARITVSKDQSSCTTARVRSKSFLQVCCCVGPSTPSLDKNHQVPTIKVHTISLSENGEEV
Format: functional, cell-based.
Further: assay procedure not described here.

Gamma-aminobutyric acid receptor subunit alpha-1/alpha-2/beta-2/gamma-2, sequence (P14867 whole entry): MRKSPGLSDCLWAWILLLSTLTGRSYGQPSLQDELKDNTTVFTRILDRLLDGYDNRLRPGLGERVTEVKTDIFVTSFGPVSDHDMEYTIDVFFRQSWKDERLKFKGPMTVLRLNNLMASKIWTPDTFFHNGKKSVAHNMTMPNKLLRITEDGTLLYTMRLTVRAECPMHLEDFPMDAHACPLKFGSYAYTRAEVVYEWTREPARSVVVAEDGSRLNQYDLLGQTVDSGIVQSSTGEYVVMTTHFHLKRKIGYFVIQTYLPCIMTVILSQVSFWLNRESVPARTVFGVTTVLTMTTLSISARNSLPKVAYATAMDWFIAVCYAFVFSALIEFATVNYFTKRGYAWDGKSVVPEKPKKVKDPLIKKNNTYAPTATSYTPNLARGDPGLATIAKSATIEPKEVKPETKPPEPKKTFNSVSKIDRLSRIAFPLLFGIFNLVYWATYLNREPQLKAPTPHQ
Gamma-aminobutyric acid receptor subunit alpha-1/alpha-2/beta-2/gamma-2, sequence (P47870 whole entry): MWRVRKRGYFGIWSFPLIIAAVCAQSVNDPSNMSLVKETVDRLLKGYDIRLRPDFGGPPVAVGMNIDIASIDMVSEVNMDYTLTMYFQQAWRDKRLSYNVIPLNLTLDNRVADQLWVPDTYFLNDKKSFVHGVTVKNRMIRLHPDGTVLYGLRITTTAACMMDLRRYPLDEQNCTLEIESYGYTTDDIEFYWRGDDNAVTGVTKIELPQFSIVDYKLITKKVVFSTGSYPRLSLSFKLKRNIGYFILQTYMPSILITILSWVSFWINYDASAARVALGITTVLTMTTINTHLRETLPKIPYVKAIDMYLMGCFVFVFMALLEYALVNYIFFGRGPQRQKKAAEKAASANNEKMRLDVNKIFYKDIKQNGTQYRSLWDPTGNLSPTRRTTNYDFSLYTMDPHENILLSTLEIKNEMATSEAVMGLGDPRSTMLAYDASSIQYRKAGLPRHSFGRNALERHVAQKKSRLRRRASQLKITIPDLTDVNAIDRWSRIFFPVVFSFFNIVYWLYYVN
Gamma-aminobutyric acid receptor subunit alpha-1/alpha-2/beta-2/gamma-2, sequence (P18507 whole entry): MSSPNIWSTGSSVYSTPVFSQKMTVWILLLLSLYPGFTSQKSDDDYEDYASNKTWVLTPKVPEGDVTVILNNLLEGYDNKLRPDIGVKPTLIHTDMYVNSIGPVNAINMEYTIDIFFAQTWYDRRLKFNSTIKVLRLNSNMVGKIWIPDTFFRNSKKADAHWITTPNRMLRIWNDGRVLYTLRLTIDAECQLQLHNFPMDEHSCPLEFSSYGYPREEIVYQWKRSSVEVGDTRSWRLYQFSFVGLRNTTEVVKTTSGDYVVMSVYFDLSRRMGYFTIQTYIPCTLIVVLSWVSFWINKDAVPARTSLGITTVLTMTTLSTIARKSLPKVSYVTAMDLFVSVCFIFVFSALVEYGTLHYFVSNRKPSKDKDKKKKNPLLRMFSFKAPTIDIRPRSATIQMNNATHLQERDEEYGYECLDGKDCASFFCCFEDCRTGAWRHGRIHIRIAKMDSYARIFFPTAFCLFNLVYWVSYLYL
Gamma-aminobutyric acid receptor subunit alpha-1/alpha-2/beta-2/gamma-2, sequence (P47869 whole entry): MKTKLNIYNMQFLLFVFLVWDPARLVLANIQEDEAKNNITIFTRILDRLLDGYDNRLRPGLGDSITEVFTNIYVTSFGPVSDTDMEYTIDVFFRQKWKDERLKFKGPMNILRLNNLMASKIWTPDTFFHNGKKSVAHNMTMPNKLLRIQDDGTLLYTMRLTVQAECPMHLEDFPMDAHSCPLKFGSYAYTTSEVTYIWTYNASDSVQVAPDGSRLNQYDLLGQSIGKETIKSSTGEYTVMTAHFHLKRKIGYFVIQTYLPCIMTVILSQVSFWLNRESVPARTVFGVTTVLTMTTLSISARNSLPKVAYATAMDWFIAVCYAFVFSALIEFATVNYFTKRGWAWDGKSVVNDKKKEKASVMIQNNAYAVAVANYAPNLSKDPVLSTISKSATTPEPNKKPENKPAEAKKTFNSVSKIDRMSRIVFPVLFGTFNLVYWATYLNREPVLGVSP
T4 sequence (P28223 whole entry): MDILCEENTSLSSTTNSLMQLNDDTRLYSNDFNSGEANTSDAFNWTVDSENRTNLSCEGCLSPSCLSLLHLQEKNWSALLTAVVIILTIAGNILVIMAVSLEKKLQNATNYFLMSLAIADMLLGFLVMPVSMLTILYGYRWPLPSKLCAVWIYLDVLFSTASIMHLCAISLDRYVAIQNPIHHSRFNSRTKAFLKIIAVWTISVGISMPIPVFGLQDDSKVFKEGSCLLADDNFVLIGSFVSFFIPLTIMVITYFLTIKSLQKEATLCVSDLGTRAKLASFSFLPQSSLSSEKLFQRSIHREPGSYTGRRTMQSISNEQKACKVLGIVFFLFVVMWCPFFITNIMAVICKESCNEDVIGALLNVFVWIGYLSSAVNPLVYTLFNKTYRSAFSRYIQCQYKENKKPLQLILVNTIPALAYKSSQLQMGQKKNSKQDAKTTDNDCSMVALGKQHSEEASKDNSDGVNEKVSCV
Gamma-aminobutyric acid receptor subunit alpha-1, sequence (P62813 whole entry): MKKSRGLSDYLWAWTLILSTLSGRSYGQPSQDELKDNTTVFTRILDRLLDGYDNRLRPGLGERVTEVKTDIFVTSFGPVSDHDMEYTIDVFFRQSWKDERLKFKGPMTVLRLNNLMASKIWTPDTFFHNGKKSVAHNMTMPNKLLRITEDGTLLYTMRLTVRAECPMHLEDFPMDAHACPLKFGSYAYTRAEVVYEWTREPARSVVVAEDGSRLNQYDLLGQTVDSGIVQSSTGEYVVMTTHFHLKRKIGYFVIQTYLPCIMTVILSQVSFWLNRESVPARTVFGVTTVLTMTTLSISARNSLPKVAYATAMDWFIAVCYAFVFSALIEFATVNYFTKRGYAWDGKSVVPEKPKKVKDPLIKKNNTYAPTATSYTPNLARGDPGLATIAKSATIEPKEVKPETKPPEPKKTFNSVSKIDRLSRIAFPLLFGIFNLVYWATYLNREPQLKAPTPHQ

Take `COCC(=O)O[C@]1(CCN(C)CCCc2nc3ccccc3[nH]2)CCc2cc(F)ccc2[C@@H]1C(C)C` [MIBEFRADIL]: the concentration at half-maximal activity (AC50) was more than 3 µM in assay [1]; more than 30 µM in [2]; 23.4 µM in assay [3]; 17.7 µM in assay [4]; more than 10 µM in [5]; more than 30 µM at Androgen receptor.
As to `CC(C)N1CCOC(c2cccc(C(F)(F)F)c2)C1` (centres undefined) [OXAFLOZANE], the AC50 (in assay [1]; in assay [3]; in assay [4]; in assay [5]; at Androgen receptor) was more than 30 µM throughout.
For `CN1C(C(=O)Nc2ccccn2)=C(OC(=O)/C=C/c2ccccc2)c2ccccc2S1(=O)=O` [PIROXICAM CINNAMATE], the AC50 (in [1]; in assay [3]; in assay [4]; in assay [5]; at Androgen receptor) was more than 30 µM in each case.
On to `Cc1cn(-c2cc(NC(=O)c3ccc(C)c(Nc4nccc(-c5cnccn5)n4)c3)cc(C(F)(F)F)c2)cn1` [RADOTINIB], for which the AC50 in assay [6], in [1], in assay [7], in [3], in assay [8] and in assay [4] was more than 30 µM each time. Moreover, the AC50 (in assay [5]; at Androgen receptor) was more than 30 µM each time.
Consider `COC(=O)N(C)c1c(N)nc(-c2nn(Cc3ccccc3F)c3ncccc23)nc1N` [RIOCIGUAT], for which the AC50 (in assay [1]; in [3]; in assay [4]; in assay [5]; at Androgen receptor) was more than 30 µM each time.
